Source: patent US20210093626A1 (priority 2018, published 2021)

How the values were obtained:
[1] = system: N2a, ScN2a, GT1, ScGT1 cells
[2] = system: PrP^Sc in GT1 cells chronically infected with RML prion (ScGT1); type: cell-based, mouse; details: drug 20 μM, 4 days, vs vehicle control, densitometry normalized to β-actin
[3] = system: PrP^Sc in GT1 cells chronically infected with 22L prion strain (ScGT1 22L); type: cell-based, mouse; details: ScGT1 cells infected with 22L prion strain, drug 20 μM, 4 days, vs vehicle control
[4] = system: PrP^Sc in N2a cells chronically infected with RML prion strain (ScN2a); type: cell-based, mouse

In the case of Nc1c(C(=O)c2c[nH]c3ccccc23)cnn1-c1ccccc1 [Compound 3, (5-Amino-1-phenyl-1H-pyrazol-4-yl)-(1H-indol-3-yl)-methanone], the citotoxicity assessment [1] is reported as “discarded”.
Nc1c(C(=O)C2CCNCC2)cnn1-c1ccc(OC(F)(F)F)cc1 [Compound 5, [5-Amino-1-(4-trifluoromethoxy-phenyl)-1H-pyrazol-4-yl]-piperidin-4-yl-methanone] was tested, and the “reduction of PrP^Sc accumulation/levels” value [2] was “about 60%”, the “reduction of PrP^Sc levels” value [3] was 35% and the “reduction in PrP^Sc levels” value ([4]; RML-infected ScN2a cells, drug 20 μM, 4 days, vs vehicle control) was 60%. For the same compound, the “PrP^Sc reduction with compound dissolved in different drug vehicles” value ([4]; ScN2a cells, vehicles PBS, H2O, NaCl and DMSO) was “able to reduce PrP^Sc in all drug vehicles tested”.
Nc1c(C(=O)c2ccc[nH]2)cnn1-c1ccc(F)cc1 [Compound G] was tested, and the “reduction of PrP^Sc accumulation/levels” value [2] was “about 50%”.
